Data: patent US20240376085A1 (Janssen Pharmaceutica NV, priority 2021, published 2024)

Key:
[1] = target: T1, IL-17A : IL-17RA binding (Homo sapiens, UniProt Q16552, K93Q); test: IL-17A(FLAG-tagged):IL-17RA(His-tagged) binding disruption Eu-HTRF assay, Protocol 1; details: FLAG-IL-17A 2.5 nM at 2x final concentration; average if tested more than once
T1 construct: Name: IL-17A-Flag
In short: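 IC50 came from a one-site competition fit of the acceptor/donor (665/620 nm) HTRF ratio. His-tagged IL-17RA, Eu-anti-FLAG and D2-anti-His were added after a 1 h rt compound preincubation with FLAG-tagged IL-17A dimer in PBS/0.01% Triton X-100, followed by 2 h at rt before reading.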

[2] = system: IL-17A-induced G-CSF production in human normal keratinocyte (NHK); test: NHK assay: IL-17A-induced G-CSF production in normal human keratinocytes; type: cell-based; details: Homo sapiens, Keratinocyte, 24 h, IL-17A 5 ng/mL, average if tested more than once
In short: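 IC50 derives from G-CSF in supernatants, quantified by HTRF from a standard curve, with CellTiter-Glo viability compared to DMSO control. Before a 24 h, 37°C culture of normal human keratinocytes at 3000–4000 cells/well, compound dilutions were preincubated 1 h at rt with human IL-17A (5 ng/mL final), with 0.2% DMSO and 5% FBS.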

T1 sequence (Q16552 with tags, fused parts or gaps K93Q): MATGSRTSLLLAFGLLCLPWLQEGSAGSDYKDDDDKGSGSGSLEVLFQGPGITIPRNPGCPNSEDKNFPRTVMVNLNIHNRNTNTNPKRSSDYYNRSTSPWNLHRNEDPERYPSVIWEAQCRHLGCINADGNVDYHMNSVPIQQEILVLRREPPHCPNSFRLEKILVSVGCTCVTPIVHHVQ

Structure (SMILES)	IC50 [1]	IC50 [2]
Cc1c(C(=O)N[C@H](c2nc3ccc([C@@H](C)NC(=O)CCC(F)(F)F)cc3[nH]2)C2CCC(F)(F)CC2)cnn1CC(F)F [Example 28, N—[(S)-(4,4-Difluorocyclohexyl)-[6-[(1R)-1-(4,4,4-trifluorobutanoylamino)ethyl]-1H-benzimidazol-2-yl]methyl]-1-(2,2-difluoroethyl)-5-methyl-pyrazole-4-carboxamide]	> 100 nM	> 100 nM
C[C@@H](NC(=O)CCC(F)(F)F)c1ccc2[nH]c([C@@H](NC(=O)c3ncn(CC4CC4)n3)C3CCC(F)(F)CC3)nc2c1 [Example 29, 1-(Cyclopropylmethyl)-N—[(S)-(4,4-difluorocyclohexyl)-[6-[(1R)-1-(4,4,4-trifluorobutanoylamino)ethyl]-1H-benzimidazol-2-yl]methyl]-1,2,4-triazole-3-carboxamide]	> 100 nM	> 100 nM
C[C@@H](NC(=O)CCC(F)(F)F)c1ccc2[nH]c([C@@H](NC(=O)c3ncnn3CC3CC3)C3CCC(F)(F)CC3)nc2c1 [Example 30, 2-(Cyclopropylmethyl)-N—[(S)-(4,4-difluorocyclohexyl)-[6-[(1R)-1-(4,4,4-trifluorobutanoylamino)ethyl]-1H-benzimidazol-2-yl]methyl]-1,2,4-triazole-3-carboxamide]	50 to 100 nM	> 100 nM
C[C@@H](NC(=O)CCC(F)(F)F)c1ccc2[nH]c([C@@H](NC(=O)c3ncnn3C)C3CCC(F)(F)CC3)nc2c1 [Example 31, N—[(S)-(4,4-Difluorocyclohexyl)-[6-[(1R)-1-(4,4,4-trifluorobutanoylamino)ethyl]-1H-benzimidazol-2-yl]methyl]-2-methyl-1,2,4-triazole-3-carboxamide]	> 100 nM	> 100 nM
C[C@@H](NC(=O)CCC(F)(F)F)c1ccc2[nH]c([C@@H](NC(=O)c3ncn(C)n3)C3CCC(F)(F)CC3)nc2c1 [Example 32, N—[(S)-(4,4-Difluorocyclohexyl)-[6-[(1R)-1-(4,4,4-trifluorobutanoylamino)ethyl]-1H-benzimidazol-2-yl]methyl]-1-methyl-1,2,4-triazole-3-carboxamide]	> 100 nM	> 100 nM
C[C@@H](NC(=O)CCC(F)(F)F)c1ccc2[nH]c([C@@H](NC(=O)c3cnn(CCOC(F)F)n3)C3CCC(F)(F)CC3)nc2c1 [Example 33, N—[(S)-(4,4-Difluorocyclohexyl)-[6-[(1R)-1-(4,4,4-trifluorobutanoylamino)ethyl]-1H-benzimidazol-2-yl]methyl]-2-[2-(difluoromethoxy)ethyl]triazole-4-carboxamide]	> 100 nM	> 100 nM
C[C@@H](NC(=O)CCC(F)(F)F)c1ccc2[nH]c([C@@H](NC(=O)c3cnnn3CCOC(F)F)C3CCC(F)(F)CC3)nc2c1 [Example 34, N—[(S)-(4,4-Difluorocyclohexyl)-[6-[(1R)-1-(4,4,4-trifluorobutanoylamino)ethyl]-1H-benzimidazol-2-yl]methyl]-3-[2-(difluoromethoxy)ethyl]triazole-4-carboxamide]	> 100 nM	50 to 100 nM
C[C@@H](NC(=O)CCC(F)(F)F)c1ccc2[nH]c([C@@H](NC(=O)c3cnn(CCOC(F)(F)F)n3)C3CCC(F)(F)CC3)nc2c1 [Example 35, N—[(S)-(4,4-Difluorocyclohexyl)-[6-[(1R)-1-(4,4,4-trifluorobutanoylamino)ethyl]-1H-benzimidazol-2-yl]methyl]-2-[2-(trifluoromethoxy)ethyl]triazole-4-carboxamide]	> 100 nM	> 100 nM
C[C@@H](NC(=O)CCC(F)(F)F)c1ccc2[nH]c([C@@H](NC(=O)c3cnnn3CCOC(F)(F)F)C3CCC(F)(F)CC3)nc2c1 [Example 36, N—[(S)-(4,4-Difluorocyclohexyl)-[6-[(1R)-1-(4,4,4-trifluorobutanoylamino)ethyl]-1H-benzimidazol-2-yl]methyl]-3-[2-(trifluoromethoxy)ethyl]triazole-4-carboxamide]	> 100 nM	50 to 100 nM
C[C@@H](NC(=O)CCC(F)(F)F)c1ccc2[nH]c([C@@H](NC(=O)c3cnn(CC(F)F)n3)C3CCC(F)(F)CC3)nc2c1 [Example 37, N—[(S)-(4,4-Difluorocyclohexyl)-[6-[(1R)-1-(4,4,4-trifluorobutanoylamino)ethyl]-1H-benzimidazol-2-yl]methyl]-2-(2,2-difluoroethyl)triazole-4-carboxamide]	> 100 nM	> 100 nM
C[C@@H](NC(=O)CCC(F)(F)F)c1ccc2[nH]c([C@@H](NC(=O)c3cnnn3CC(F)F)C3CCC(F)(F)CC3)nc2c1 [Example 38, N—[(S)-(4,4-Difluorocyclohexyl)-[6-[(1R)-1-(4,4,4-trifluorobutanoylamino)ethyl]-1H-benzimidazol-2-yl]methyl]-3-(2,2-difluoroethyl)triazole-4-carboxamide]	> 100 nM	> 100 nM
CC(C)n1cnc(C(=O)N[C@H](c2nc3cc([C@@H](C)NC(=O)CCC(F)(F)F)ccc3[nH]2)C2CCC(F)(F)CC2)n1 [Example 39, N—[(S)-(4,4-Difluorocyclohexyl)-[6-[(1R)-1-(4,4,4-trifluorobutanoylamino)ethyl]-1H-benzimidazol-2-yl]methyl]-1-isopropyl-1,2,4-triazole-3-carboxamide]	> 100 nM	> 100 nM
C[C@@H](NC(=O)CCC(F)(F)F)c1ccc2[nH]c([C@@H](NC(=O)c3ncn(CCC(F)F)n3)C3CCC(F)(F)CC3)nc2c1 [Example 40, N—[(S)-(4,4-Difluorocyclohexyl)-[6-[(1R)-1-(4,4,4-trifluorobutanoylamino)ethyl]-1H-benzimidazol-2-yl]methyl]-1-(3,3-difluoropropyl)-1,2,4-triazole-3-carboxamide]	> 100 nM	> 100 nM
C[C@@H](NC(=O)CCC(F)(F)F)c1ccc2[nH]c([C@@H](NC(=O)c3ncnn3CCC(F)F)C3CCC(F)(F)CC3)nc2c1 [Example 41, N—[(S)-(4,4-Difluorocyclohexyl)-[6-[(1R)-1-(4,4,4-trifluorobutanoylamino)ethyl]-1H-benzimidazol-2-yl]methyl]-2-(3,3-difluoropropyl)-1,2,4-triazole-3-carboxamide]	> 100 nM	> 100 nM
C[C@@H](NC(=O)CCC(F)(F)F)c1ccc2nc([C@@H](NC(=O)c3cnn(C)c3C(F)(F)F)C3CCC(F)(F)CC3)[nH]c2c1 [Example 58, N—((S)-(4,4-Difluorocyclohexyl)(6-((R)-1-(4,4,4-trifluorobutanamido)ethyl)-1H-benzo[d]imidazol-2-yl)methyl)-1-methyl-5-(trifluoromethyl)-1H-pyrazole-4-carboxamide]	> 100 nM	> 100 nM
C[C@@H](NC(=O)CCC(F)(F)F)c1ccc2nc([C@@H](NC(=O)c3cnn(C)c3C(F)F)C3CCC(F)(F)CC3)[nH]c2c1 [Example 59, N—((S)-(4,4-Difluorocyclohexyl)(6-((R)-1-(4,4,4-trifluorobutanamido)ethyl)-1H-benzo[d]imidazol-2-yl)methyl)-5-(difluoromethyl)-1-methyl-1H-pyrazole-4-carboxamide]	> 100 nM	> 100 nM
C[C@@H](NC(=O)CCC(F)(F)F)c1ccc2nc([C@@H](NC(=O)c3cnnn3C3CC3)C3CCC(F)(F)CC3)[nH]c2c1 [Example 60, 1-Cyclopropyl-N—((S)-(4,4-difluorocyclohexyl)(6-((R)-1-(4,4,4-trifluorobutanamido)ethyl)-1H-benzo[d]imidazol-2-yl)methyl)-1H-1,2,3-triazole-5-carboxamide]	> 100 nM	> 100 nM
C[C@@H](NC(=O)CCC(F)(F)F)c1ccc2nc([C@@H](NC(=O)c3cnn(CC4CC4)c3)C3CCC(F)(F)CC3)[nH]c2c1 [Example 61, 1-(Cyclopropylmethyl)-N—((S)-(4,4-difluorocyclohexyl)(6-((R)-1-(4,4,4-trifluorobutanamido)ethyl)-1H-benzo[d]imidazol-2-yl)methyl)-1H-pyrazole-4-carboxamide]	> 100 nM	> 100 nM
C[C@@H](NC(=O)CCC(F)(F)F)c1ccc2nc([C@@H](NC(=O)c3cnn(CC4CCC4)n3)C3CCC(F)(F)CC3)[nH]c2c1 [Example 62, 2-(Cyclobutylmethyl)-N—((S)-(4,4-difluorocyclohexyl)(6-((R)-1-(4,4,4-trifluorobutanamido)ethyl)-1H-benzo[d]imidazol-2-yl)methyl)-2H-1,2,3-triazole-4-carboxamide]	> 100 nM	> 100 nM
C[C@@H](NC(=O)CCC(F)(F)F)c1ccc2nc([C@@H](NC(=O)c3cnnn3CC3CCC3)C3CCC(F)(F)CC3)[nH]c2c1 [Example 63, 1-(Cyclobutylmethyl)-N—((S)-(4,4-difluorocyclohexyl)(6-((R)-1-(4,4,4-trifluorobutanamido)ethyl)-1H-benzo[d]imidazol-2-yl)methyl)-1H-1,2,3-triazole-5-carboxamide]	50 to 100 nM	50 to 100 nM
C[C@@H](NC(=O)CCC(F)(F)F)c1ccc2nc([C@@H](NC(=O)c3cnn(CC4CC(F)(F)C4)n3)C3CCC(F)(F)CC3)[nH]c2c1 [Example 64, 2-((3,3-Difluorocyclobutyl)methyl)-N—((S)-(4,4-difluorocyclohexyl)(6-((R)-1-(4,4,4-trifluorobutanamido)ethyl)-1H-benzo[d]imidazol-2-yl)methyl)-2H-1,2,3-triazole-4-carboxamide]	> 100 nM	> 100 nM
